Experimental data: publication PMC8752837, “Structural basis of BAK activation in mitochondrial apoptosis initiation” (Nature Communications, 2022)
Read-outs that look alike come from different tables or passages of the source.

What was measured:
MEAS-BAK-His6 = biological target: T1, MEAS-BAK-His6 (Homo sapiens, UniProt Q16611); assay: Surface plasmon resonance; format: binding; details: 20 °C; for Kd: MEAS-BAK-His6 captured on Ni-NTA HisCap chip, three-fold peptide dilution series injected in triplicate, read-out: SPR KD
T1 construct: C-terminus truncated recombinant human BAK containing C-terminal 6× histidine tag (MEAS-BAK); made in house; host or cells: E. coli T7 Express pLac I/Y
T1 sequence (Q16611 1-186 limits assumed): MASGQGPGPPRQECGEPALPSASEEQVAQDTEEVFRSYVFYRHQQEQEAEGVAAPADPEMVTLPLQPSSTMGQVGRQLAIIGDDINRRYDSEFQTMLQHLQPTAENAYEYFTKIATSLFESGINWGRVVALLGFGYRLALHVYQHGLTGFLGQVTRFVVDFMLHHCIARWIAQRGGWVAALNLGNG
Description: We conducted SPR experiments at 20 °C using a Pioneer FE optical biosensor (ForteBio) amd histidine-tagged MEAS-BAK-His6 immobilized on polycarboxylate hydrogel-coated gold chips preimmobilized with nitrilotriacetic acid (HisCap chips; ForteBio). We primed the chip in chelating buffer (10 mM HEPES pH 7.4, 150 mM NaCl, 50 µM EDTA, 0.005% Tween20) and preconditioned it at 10 µL/min with three 60 s injections of wash buffer (10 mM HEPES pH 8.3, 150 mM NaCl, 350 mM EDTA, 0.05% Tween20) and one 60 s injection of chelating buffer before charging with a 60 s injection of 500 µM NiCl2 in chelating buffer. After priming into binding buffer (20 mM HEPES pH 8.0, 200 mM NaCl, 1 mM TCEP, 0.01% Tween20), we injected BAK to achieve ~500 RU of captured protein. As reference cell, we charged one flow cell on the chip with Ni^2+ without adding protein. […] We included a series of buffer-only (blank) injections throughout the experiment to account for instrumental noise. […] We processed, double-referenced, solvent corrected, and analyzed the data using the software package Qdat (version 4.3.1.2, ForteBio). We determined kinetic rate constants and affinities by fitting the data to a 1:1 interaction model.

V74A(1) BAK = assay: Liposome permeabilization assay: BH3 peptide activation of V74A(1) BAK receptor; format: biochemical, human; details: Suppl. Figs. 3e, 4d
Description: We performed liposome permeabilization assays as previously described[43]-[46]. […] We mixed the lipid film in ANTS/DPX solution by vortexing and sonication (~15 min) followed by extrusion through polycarbonate membrane of 2 μm pore size (Avanti Polar lipids) to generate homogenous large unilamellar vesicles (LUVs). We separated LUVs from free ANTS/DPX by S500 size exclusion chromatography and stored them at 4 °C in the dark. We prepared peptide and protein dilutions in 96-well black flat bottom plates (Costar) kept on ice. […] We quantified liposome permabilization by integrating area under curve (AUC) of normalized traces based on the Simpson's equation, and analyzed that data in Excel and GraphPad Prism. AUC measurements reflect the kinetic and extent of liposome permeabilization and provide quantitative means for comparison between different experimental conditions (e.g., BAK mutants with gross or partial variation in activity). Variability in permeabilization of different liposomes is common and our analyses compare among conditions investigated with the same liposomes. Although the absolute permeabilization values may differ, the trends for the same conditions are always very similar between different liposomes.

Human BAK-∆TM-His6 (BAK) = biological target: T2, Human BAK-∆TM-His6 (BAK) (Homo sapiens, UniProt Q16611); assay: Liposome permeabilization assay (ANTS/DPX dye release from LUVs): activation of WT BAK by BH3 peptides;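 for AUC for Experiment-2 (Mean): traces normalized between buffer minimum and 3% CHAPS maximum fluorescence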;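 for AUC for Experiment-3 (Mean): traces normalized between buffer minimum and 3% CHAPS maximum fluorescence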; format: biochemical; parameters: AUC for Experiment-2 (Mean) / AUC for Experiment-3 (Mean) / AUC for Experiment-1 (Mean):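 traces normalized between buffer minimum and 3% CHAPS maximum fluorescence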; details: for EC50: 50 nM BAK; for activation of WT BAK in liposome permeabilization assays: BAK BH3 peptide ligands, 50 nM WT BAK receptor; for peptide concentration at which ligands activate WT BAK / lowest dose at which permeabilization is observed: liposome permeabilization; for peptide concentration at which ligands activate WT BAK: Suppl. Figs. 3e, 4d, e; for lowest dose at which permeabilization is observed: robust across experiments; for AUC for Experiment-1 (Mean) / AUC for Experiment-2 (Mean) / AUC for Experiment-3 (Mean): AUC 0-88 mins of liposome permeabilization; for AUC for Experiment-1 (Mean): Experiment-1, mean of N replicates; for AUC for Experiment-2 (Mean): Experiment-2, mean of N replicates; for AUC for Experiment-3 (Mean): Experiment-3, mean of N replicates
T2 construct: C-terminus truncated recombinant human BAK containing C-terminal 6× histidine tag (MEAS-BAK); made in house; host or cells: E. coli T7 Express pLac I/Y
T2 sequence (Q16611 1-186 limits assumed): T1 sequence (Q16611 1-186 limits assumed)

| EC50 (Human BAK-∆TM-His6 (BAK); EC50 from AUC vs peptide dose, data in Supplementary Figure 4b, 37 °C, 90 min, read-out: Liposome permeabilization EC50) | EC50 (Human BAK-∆TM-His6 (BAK); peer review file, read-out: EC50 analysis of liposome permeabilization (rebuttal, earlier manuscript version)) | activation of WT BAK in liposome permeabilization assays (Human BAK-∆TM-His6 (BAK); listed as WT BAK BH3 peptide) | Structure (SMILES) | Kd (MEAS-BAK-His6; 1:1 interaction model) | peptide concentration at which ligands activate V74A(1) BAK (V74A(1) BAK) | activation of WT BAK in liposome permeabilization assays (Human BAK-∆TM-His6 (BAK)) | peptide concentration at which ligands activate WT BAK (Human BAK-∆TM-His6 (BAK)) | lowest dose at which permeabilization is observed (Human BAK-∆TM-His6 (BAK)) | SPR kd (MEAS-BAK-His6; 1:1 interaction model) | kon (MEAS-BAK-His6; 1:1 interaction model, read-out: SPR ka) | SPR Rmax (MEAS-BAK-His6; ~500 RU captured BAK) | EC50 (Human BAK-∆TM-His6 (BAK); EC50 from AUC vs peptide dose, data in Supplementary Figure 7c, 37 °C, 90 min, read-out: Liposome permeabilization EC50) | AUC for Experiment-1 (Mean) (Human BAK-∆TM-His6 (BAK); 1 μM peptide + 50 nM BAK) | AUC for Experiment-2 (Mean) (Human BAK-∆TM-His6 (BAK); 1 μM peptide + 50 nM BAK) | AUC for Experiment-3 (Mean) (Human BAK-∆TM-His6 (BAK); 1 μM peptide + 50 nM BAK) | AUC for Experiment-1 (Mean) (Human BAK-∆TM-His6 (BAK); 50 μM peptide + 50 nM BAK) | AUC for Experiment-2 (Mean) (Human BAK-∆TM-His6 (BAK); 50 μM peptide + 50 nM BAK) | AUC for Experiment-3 (Mean) (Human BAK-∆TM-His6 (BAK); 50 μM peptide + 50 nM BAK) |
| --- | --- | --- | --- | --- | --- | --- | --- | --- | --- | --- | --- | --- | --- | --- | --- | --- | --- | --- |
| 35.8 ± 30.4 nM | 50 to 200 nM | potently activate WT BAK | CC[C@H](C)[C@H](NC(=O)[C@H](C)NC(=O)[C@H](CC(C)C)NC(=O)[C@H](CCC(N)=O)NC(=O)[C@H](CCCNC(=N)N)NC(=O)CNC(=O)[C@@H](NC(=O)[C@H](CCC(N)=O)NC(=O)CNC(=O)[C@H](CCSC)NC(=O)[C@@H](NC(=O)[C@H](CO)NC(=O)[C@H](CO)NC(C)=O)[C@@H](C)O)C(C)C)C(=O)N[C@H](C(=O)NCC(=O)N[C@@H](CC(=O)O)C(=O)N[C@@H](CC(=O)O)C(=O)N[C@H](C(=O)N[C@@H](CC(N)=O)C(=O)N[C@@H](CCCNC(=N)N)C(=O)N[C@@H](CCCNC(=N)N)C(=O)N[C@@H](Cc1ccc(O)cc1)C(N)=O)[C@@H](C)CC)[C@@H](C)CC [WT BAK BH3] | 67000 nM | above 1 µM | activates BAK in liposome permeabilization assays similarly to BID BH3 | above 1 µM | 0.1 µM | – | – | – | – | – | – | – | – | – | – |
| – | – | – | CC[C@H](C)[C@H](NC(=O)[C@H](CO)NC(=O)[C@H](CCCNC(=N)N)NC(=O)[C@H](CC(=O)O)NC(=O)[C@H](CCSC)NC(=O)[C@H](CO)NC(=O)[C@H](CC(=O)O)NC(=O)CNC(=O)[C@@H](NC(=O)[C@H](CCC(N)=O)NC(=O)[C@H](C)NC(=O)[C@H](CC(C)C)NC(=O)[C@H](Cc1c[nH]cn1)NC(=O)[C@H](CCCNC(=N)N)NC(=O)[C@H](C)NC(=O)[C@@H](NC(=O)[C@H](CC(N)=O)NC(=O)[C@H](CCCNC(=N)N)NC(=O)[C@@H](NC(=O)[C@@H](NC(=O)[C@H](CC(=O)O)NC(=O)[C@H](CCC(=O)O)NC(C)=O)[C@@H](C)CC)[C@@H](C)CC)[C@@H](C)CC)C(C)C)C(N)=O [WT BID BH3, reference compound] | 62300 ± 400 nM | above 1 µM | – | above 1 µM | 1 µM | 2.61±0.01 ×10-1 s-1 | 4190 ± 20 M⁻¹ s⁻¹ | 26.2±0.1 RU | 59 ± 12 nM | 17.777 | 10.071 | 10.975 | 14.842 | 13.692 | 17.854 |
